Patent US8163909B2, “Substituted hydroxyethyl amine compounds as beta-secretase modulators and methods of use” (Amgen Inc., priority 2007, dated 2012)
Like-named read-outs stand apart in the source and are kept apart here.

Legend:
[1] = target: Beta Secretase enzyme (BACE) (Homo sapiens, UniProt P56817); test: In vitro enzymatic BACE FRET (fluorescence resonance energy transfer) assay; type: biochemical;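 further: fluorescence read after 1 h with 50 nM quenched peptide substrate spanning the BACE cleavage site, in pH 4.2 acetate buffer containing 10% DMSO and nonionic detergent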
[2] = system: Aβ40 in conditioned medium of cells stably expressing Amyloid Precursor Protein (APP); test: In vitro BACE cell-based assay (Aβ40 in conditioned medium, sandwich ELISA); details: Homo sapiens;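 further: compounds added as a dilution series, secreted peptide quantified by europium time-resolved fluorescence readout, potency fitted from percent of control versus compound concentration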
[3] = Microsomal stability assay, rat liver microsomes;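 further: rat liver microsomes (0.25 mg/mL) with about 1 µM compound plus 1 mM NADPH, pH 7.4, 37 °C for 30 min, parent left measured by LC-MS/MS against 0 min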
[4] = Microsomal stability assay, human liver microsomes;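 further: pooled human liver microsomes at 0.25 mg/mL with 1 µM compound and NADPH at 37 °C, pH 7.4, for 30 min, unchanged parent quantified by LC-MS/MS against the 0 min sample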
CYP2D6 = CYP2D6 (Homo sapiens, UniProt P10635); test: CYP2D6 inhibition assay (bufuralol, pooled human liver microsomes)
[5] = BACE enzyme assay, IC50's in uM, read-out: BACE1 FRET assay
[6] = HEK293, HEK cell-based assay, IC50's in uM, read-out: HEK cell assay
[7] = 2D6 IC50 (uM), CYP enzyme inhibition
[8] = 2D6 IC50, CYP enzyme inhibition
[9] = read-out: BACE1 FRET assay (IC50)
[10] = HEK293, HEK cells, read-out: HEK cell assay (IC50)
[11] = BACE enzyme assay IC50, read-out: BACE1 FRET assay
[12] = HEK293, HEK cell-based assay IC50, read-out: HEK cell assay
[13] = 2D6 IC50 (uM), CYP2D6 inhibition
[14] = HEK293, cell-based assay, HEK cells, IC50's in uM, read-out: HEK cell assay

Sequence of Beta Secretase enzyme (BACE) (P56817 46-501): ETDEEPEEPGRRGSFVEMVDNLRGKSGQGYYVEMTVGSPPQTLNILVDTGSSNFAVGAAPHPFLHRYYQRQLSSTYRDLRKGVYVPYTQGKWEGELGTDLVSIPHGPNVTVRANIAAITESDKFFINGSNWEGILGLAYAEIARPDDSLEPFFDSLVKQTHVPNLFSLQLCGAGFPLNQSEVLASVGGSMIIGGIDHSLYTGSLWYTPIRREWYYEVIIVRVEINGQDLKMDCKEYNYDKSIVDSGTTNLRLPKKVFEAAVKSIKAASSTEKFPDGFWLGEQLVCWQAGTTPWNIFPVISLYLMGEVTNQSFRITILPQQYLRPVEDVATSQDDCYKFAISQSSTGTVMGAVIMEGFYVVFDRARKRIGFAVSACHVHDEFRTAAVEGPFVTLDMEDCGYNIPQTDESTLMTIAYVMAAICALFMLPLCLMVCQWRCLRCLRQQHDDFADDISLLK
Sequence of CYP2D6 (P10635 whole entry): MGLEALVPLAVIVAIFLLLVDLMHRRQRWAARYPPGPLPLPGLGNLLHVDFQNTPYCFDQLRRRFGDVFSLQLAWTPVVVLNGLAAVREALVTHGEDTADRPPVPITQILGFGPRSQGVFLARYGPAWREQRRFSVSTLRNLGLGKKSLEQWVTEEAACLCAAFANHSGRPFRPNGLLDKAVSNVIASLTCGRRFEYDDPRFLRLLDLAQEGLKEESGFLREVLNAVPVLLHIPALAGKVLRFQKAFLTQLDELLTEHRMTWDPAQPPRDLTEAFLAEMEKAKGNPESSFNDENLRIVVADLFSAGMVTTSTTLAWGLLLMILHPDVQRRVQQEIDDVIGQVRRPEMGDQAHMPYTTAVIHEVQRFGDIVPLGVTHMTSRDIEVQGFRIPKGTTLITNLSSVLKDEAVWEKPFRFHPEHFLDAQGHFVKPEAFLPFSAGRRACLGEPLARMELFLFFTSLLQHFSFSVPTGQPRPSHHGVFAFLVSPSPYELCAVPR

SMILES	RLM ([3]; rat liver microsomal data) [µL/min/mg]	HLM ([4]; human liver microsomal data) [µL/min/mg]	IC50 [1, 9] [µM]	IC50 [2, 10] [µM]	RLM ([3]; rat liver microsomes) [µL/min/mg]	HLM ([4]; human liver microsomes) [µL/min/mg]	IC50 (CYP2D6; 2D6 IC50, CYP2D6 inhibition) [µM]	also measured
C#Cc1cc(F)cc(C[C@H](NC(=O)[C@@H](C)OC)[C@H](O)CN[C@H]2CC3(CCC3)Oc3ncc(CC(C)(C)C)cc32)c1 [Example 834, (2R)-N-((1S,2R)-3-(((4′S)-6′-(2,2-dimethylpropyl)-3′,4′-dihydrospiro[cyclobutane-1,2′-pyrano[2,3-b]pyridin]-4′-yl)amino)-1-(3-ethynyl-5-fluorobenzyl)-2-hydroxypropyl)-2-methoxypropanamide]	98	37						IC50 [1, 5]: 0.005 µM; IC50 [2, 6]: 0.011 µM; IC50 (CYP2D6; [7]): 2.5 µM
CO[C@H](C)C(=O)N[C@@H](Cc1cc(F)cc(F)c1)[C@H](O)CN[C@H]1CC2(CCC2)Oc2c1cc(CC(C)C)cc2-n1ccnc1 [compound 461]	126	28						IC50 ([1]; Table 2, read-out: BACE1 FRET assay): 0.026 µM; IC50 ([2]; HEK293, Table 2, HEK cells, read-out: HEK cell assay): 0.028 µM; IC50 (CYP2D6; [8]): 2.2 µM
CO[C@H](C)C(=O)N[C@@H](Cc1cccc(F)c1)[C@H](O)CN[C@H]1CC2(CCC2)Oc2c1cc(CC(C)(C)C)nc2-c1ccncc1 [compound 533]	163	29						IC50 ([1]; BACE enzyme assay, read-out: BACE1 FRET assay): 0.013 µM; IC50 ([2]; HEK293, HEK cells, read-out: HEK cell assay): 0.044 µM; IC50 (CYP2D6; [7]): 1.4 µM
COCC(=O)N[C@@H](Cc1cc(F)cc(F)c1)[C@H](O)CN[C@H]1CC2(CCC2)Oc2c1cc(Cl)cc2-n1ccnc1 [compound 581]			0.081	0.075	124	91		
CO[C@H](C)C(=O)N[C@@H](Cc1cc(F)cc(F)c1)[C@H](O)CN[C@H]1CC2(CCC2)Oc2c1cc(CC(C)(C)C)nc2-c1ccncc1 [compound 583]			0.015	0.03	80	14	1.2	
CO[C@H](C)C(=O)N[C@@H](Cc1cc(F)cc(F)c1)[C@H](O)CN[C@H]1CC2(CCC2)Oc2c(-c3ccncc3)cc(CC(C)C)cc21 [compound 587]			0.012	0.006	73	29	2.1	
CO[C@H](C)C(=O)N[C@@H](Cc1cc(F)cc(F)c1)[C@H](O)CN[C@H]1CC2(CCC2)Oc2c(-c3ccncc3)cc(CC(C)(C)F)cc21 [compound 590]			0.024	0.007	105	60	0.6	
CC(=O)N[C@@H](Cc1cccc(F)c1)[C@H](O)CN[C@H]1CC2(CCC2)Oc2c(-c3ccncc3)cc(CC(C)(C)C)cc21 [compound 592]			0.01	0.004	73	14	1.7	
CC(=O)N[C@@H](Cc1cccc(F)c1)[C@H](O)CN[C@H]1CC2(CCC2)Oc2c1cc(Cl)cc2-n1ccnc1 [compound 594]			0.158	0.077	61	44	0.3	
COCC(=O)N[C@@H](Cc1ccccc1)[C@H](O)CN[C@H]1CC2(CCC2)Oc2c(-c3ccncc3)cc(CC(C)C)cc21 [compound 603]			0.01	0.01	172	76	2.7	
CO[C@H](C)C(=O)N[C@@H](Cc1ccccc1)[C@H](O)CN[C@H]1CC2(CCC2)Oc2c(-c3ccncc3)cc(CC(C)C)cc21 [compound 604]			0.018	0.013	215	89	2.7	
COCC(=O)N[C@@H](Cc1ccc(F)cc1)[C@H](O)CN[C@H]1CC2(CCC2)Oc2c(-c3ccncc3)cc(CC(C)C)cc21 [compound 605]			0.014	0.016	71	73	2.3	
CO[C@H](C)C(=O)N[C@@H](Cc1ccc(F)cc1)[C@H](O)CN[C@H]1CC2(CCC2)Oc2c(-c3ccncc3)cc(CC(C)C)cc21 [compound 606]			0.041	0.026	85	51	2	
COCC(=O)N[C@@H](Cc1cccc(F)c1)[C@H](O)CN[C@H]1CC2(CCC2)Oc2c(-c3ccncc3)cc(CC(C)C)cc21 [compound 607]			0.01	0.007	72	65	1.7	
COCC(=O)N[C@@H](Cc1cccc(C#N)c1)[C@H](O)CN[C@H]1CC2(CCC2)Oc2c(-c3ccncc3)cc(CC(C)C)cc21 [compound 619]			0.012	0.006	85	35	1.5	
CO[C@H](C)C(=O)N[C@@H](Cc1cccc(C#N)c1)[C@H](O)CN[C@H]1CC2(CCC2)Oc2c(-c3ccncc3)cc(CC(C)C)cc21 [compound 620]			0.01	0.005	105	48	1.9	
CO[C@H](C)C(=O)N[C@@H](Cc1cc(F)cc(F)c1)[C@H](O)CN[C@H]1CC2(CCC2)Oc2c(-c3cncn3C)cc(CC(C)C)cc21 [compound 622]			0.026	0.007	161	32	6.6	
COCC(=O)N[C@@H](Cc1cc(F)cc(F)c1)[C@H](O)CN[C@H]1CC2(CCC2)Oc2c(-c3nccn3C)cc(CC(C)C)cc21 [compound 630]			0.021	0.003	220	37	4	
CO[C@H](C)C(=O)N[C@@H](Cc1cncs1)[C@H](O)CN[C@H]1CC2(CCC2)Oc2c(-c3ccncc3)cc(CC(C)(C)C)cc21 [compound 632]			0.065	0.015	166	57	3.1	
COCC(=O)N[C@@H](Cc1ccccc1)[C@H](O)CN[C@H]1CC2(CCC2)Oc2c(-c3cncn3C)cc(CC(C)C)cc21 [compound 635]			0.074	0.01	420	44	4.1	
CC(=O)N[C@@H](Cc1cccc(-n2ccnc2)c1)[C@H](O)CN[C@H]1CC2(CCC2)Oc2ccc(CC(C)(C)C)cc21 [compound 659]			0.076	0.024	413	706	0.2	
COCC(=O)N[C@@H](Cc1cc(F)cc(F)c1)[C@H](O)CN[C@H]1CC2(CCC2)Oc2c1cc(CC(C)C)nc2-c1ccncc1 [compound 682]					113	34		IC50 [1, 11]: 0.009 µM; IC50 [2, 12]: 0.011 µM; IC50 (CYP2D6; [13]): 1.1 µM
CC(=O)N[C@@H](Cc1cc(F)cc(F)c1)[C@H](O)CN[C@H]1CC2(CCC2)Oc2c1cc(C1CC1)cc2-n1ccnc1 [compound 705]					36	51		IC50 [1, 11]: 0.032 µM; IC50 [2, 12]: 0.013 µM; IC50 (CYP2D6; [13]): 0.6 µM
CC(C)(C)Cc1cnc2c(c1)[C@@H](NC[C@@H](O)[C@H](Cc1ccc(F)cc1)NC(=O)[C@@H]1CN(Cc3cncs3)CCO1)CC1(CCC1)O2 [compound 788]	157	267						IC50 [1, 5]: 0.016 µM; IC50 [2, 6]: 0.013 µM; IC50 (CYP2D6; [7]): 0.6 µM
C#Cc1cc(C[C@H](NC(=O)CC)[C@H](O)CN[C@H]2CC3(CCC3)Oc3ncc(CC(C)(C)C)cc32)ccc1F [compound 848]	60	36						IC50 [1, 5]: 0.005 µM; IC50 [2, 14]: 0.019 µM; IC50 (CYP2D6; [8]): 0.9 µM
C#Cc1cc(C#C)cc(C[C@H](NC(=O)COC)[C@H](O)CN[C@H]2CC3(CCC3)Oc3ncc(CC(C)(C)C)cc32)c1 [compound 858]	88	90						IC50 [1, 5]: 0.005 µM; IC50 [2, 14]: 0.147 µM; IC50 (CYP2D6; [8]): 1.1 µM
COCC(=O)N[C@@H](Cc1cc(F)cc(-c2nccs2)c1)[C@H](O)CN[C@]1(C)CC2(CCC2)Oc2ncc(CC(C)(C)C)cc21 [compound 867]	119	66						IC50 [1, 5]: 1.21 µM; IC50 [2, 14]: 1.15 µM; IC50 (CYP2D6; [8]): 0.7 µM
C#Cc1cccc(C[C@H](NC(=O)COC)[C@H](O)CN[C@H]2C[C@@]3(CCOC3)Oc3ncc(CC(C)(C)C)cc32)c1 [compound 869, N-((1S,2R)-3-(((3S,4′S)-6′-(2,2-dimethylpropyl)-3′,4,4′,5-tetrahydrospiro[furan-3,2′-pyrano[2,3-b]pyridin]-4′-yl)amino)-1-(3-ethynylbenzyl)-2-hydroxypropyl)-2-methoxyacetamide]	55	21						IC50 [1, 5]: 0.006 µM; IC50 [2, 14]: 0.01 µM; IC50 (CYP2D6; [8]): 9.5 µM
CCO[C@H](C)C(=O)N[C@@H](Cc1ccc2c(c1)OCO2)[C@H](O)CN[C@H]1CC2(CCC2)Oc2ncc(CC(C)(C)C)cc21 [compound 887]	136	37						IC50 [1, 5]: 0.102 µM; IC50 [2, 14]: 0.052 µM
